In US20170121319A1, “Herbicidal Compounds” (Syngenta Participations AG, priority 2014, published 2017):

Key:
Format in all cases: in vivo
Set-up in all cases: key: 5=total damage to plant; 0=no damage to plant
LOLPE [1] = assay: Post-emergence herbicidal activity, glasshouse pot test
Method: (§1) Seeds of a variety of test species were sown in standard soil in pots. After 8 days cultivation (post-emergence) under controlled conditions in a glasshouse (at 24/16° C., day/night; 14 hours light; 65% humidity), the plants were sprayed with an aqueous spray solution derived from the formulation of the technical active ingredient in acetone/water (50:50) solution containing 0.5% Tween 20 (polyoxyethelyene sorbitan monolaurate, CAS RN 9005-64-5). The test plants were then grown in a glasshouse under controlled conditions (at 24/16° C., day/night; 14 hours light; 65% humidity) and watered twice daily. After 13 days, the test was evaluated (5=total damage to plant; 0=no damage to plant). Pre- and post-emergence testing was carried out as detailed above on the compounds A1, A2, A4 and A5 and their respective S-enantiomers.

[2] = test system: ECHCG = Echinochloa crus-galli; assay: as above
Method: as §1

ZEAMX = Zea mays [3] = assay: as above
Method: as §1

[4] = test system: AMARE = Amaranthus retroflexus; assay: as above
Method: as §1

SETFA = Setaria faberi [5] = assay: as above; conditions: for SEFTA damage score (0-5): comparison of enantiomers; for SETFA damage score (0-5): 1000 g/Ha, evaluated after 13 days
Method: as §1

[6] = test system: ABUTH = Abutilon theophrasti; assay: as above
Method: as §1

LOLPE [7] = assay: Pre-emergence herbicidal activity, glasshouse pot test
Method: as §1, with “After” for “After 8 days”, “for one day (pre-emergence)” for “(post-emergence)”

[8] = test system: ECHCG = Echinochloa crus-galli; assay: as above
Method: as §1, with “After” for “After 8 days”, “for one day (pre-emergence)” for “(post-emergence)”

ZEAMX = Zea mays [9] = assay: as above
Method: as §1, with “After” for “After 8 days”, “for one day (pre-emergence)” for “(post-emergence)”

[10] = test system: AMARE = Amaranthus retroflexus; assay: as above
Method: as §1, with “After” for “After 8 days”, “for one day (pre-emergence)” for “(post-emergence)”

SETFA = Setaria faberi [11] = assay: as above; conditions: for SEFTA damage score (0-5): comparison of enantiomers; for SETFA damage score (0-5): 1000 g/Ha, evaluated after 13 days
Method: as §1, with “After” for “After 8 days”, “for one day (pre-emergence)” for “(post-emergence)”

[12] = test system: ABUTH = Abutilon theophrasti; assay: as above
Method: as §1, with “After” for “After 8 days”, “for one day (pre-emergence)” for “(post-emergence)”

[13] = comparison of enantiomers, 62.5 g/Ha
[14] = comparison of enantiomers, 250 g/Ha
[15] = 1000 g/Ha, evaluated after 13 days

Row | Compound | LOLPE damage score (0-5) (LOLPE [1]; [13]) | LOLPE damage score (0-5) (LOLPE [1]; [14]) | ECHCG damage score (0-5) [2, 13] | ECHCG damage score (0-5) [2, 14] | ZEAMX damage score (0-5) (ZEAMX = Zea mays [3]; [14]) | AMARE damage score (0-5) [4, 13] | AMARE damage score (0-5) [4, 14] | SEFTA damage score (0-5) (SETFA = Setaria faberi [5]; 62.5 g/Ha) | ABUTH damage score (0-5) [6, 13] | ABUTH damage score (0-5) [6, 14] | LOLPE damage score (0-5) (LOLPE [7]; [13]) | ECHCG damage score (0-5) [8, 13] | ECHCG damage score (0-5) [8, 14] | ZEAMX damage score (0-5) (ZEAMX = Zea mays [9]; [13]) | ZEAMX damage score (0-5) (ZEAMX = Zea mays [9]; [14]) | AMARE damage score (0-5) [10, 13] | AMARE damage score (0-5) [10, 14] | SEFTA damage score (0-5) (SETFA = Setaria faberi [11]; 250 g/Ha) | ABUTH damage score (0-5) [12, 13] | ABUTH damage score (0-5) [12, 14] | other results
1 | CCO[C@H]1C(O)N(c2cc(C(C)(C)C)on2)C(=O)N1C (single isomer, unassigned) [A2 S-enantiomer, reference compound] | 0 | 1 | 0 | 1 | 1 | 5 | 5 | 0 | 1 | 1 | 1 | 0 | 3 | 1 | 1 | 5 | 5 | 0 | 1 | 1 | –
2 | CCO[C@@H]1C(O)N(c2cc(C(C)(C)C)on2)C(=O)N1C (single isomer, unassigned) [Example A2] | – | 5 | 5 | 5 | 5 | 5 | 5 | 3 | 5 | 5 | 3 | 5 | 4 | 4 | 4 | 5 | 5 | 5 | 3 | 3 | ECHCG damage score (0-5) [2, 15]: 5; ZEAMX damage score (0-5) (ZEAMX = Zea mays [3]; [15]): 4; ZEAMX damage score (0-5) (ZEAMX = Zea mays [3]; [13]): 5; AMARE damage score (0-5) [4, 15]: 5; SETFA damage score (0-5) (SETFA = Setaria faberi [5]): 5; ABUTH damage score (0-5) [6, 15]: 5; ECHCG damage score (0-5) [8, 15]: 4; ZEAMX damage score (0-5) (ZEAMX = Zea mays [9]; [15]): 2; AMARE damage score (0-5) [10, 15]: 5; SETFA damage score (0-5) (SETFA = Setaria faberi [11]): 1; ABUTH damage score (0-5) [12, 15]: 5
3 | CO[C@H]1C(O)N(c2cc(C(C)(C)C)on2)C(=O)N1C (stereo partly drawn) [A1 S-enantiomer, reference compound] | 0 | 1 | 1 | 1 | 1 | 5 | 5 | 0 | 0 | 2 | 0 | 0 | 0 | 0 | 0 | 5 | 5 | 0 | 0 | 0 | ZEAMX damage score (0-5) (ZEAMX = Zea mays [3]; [13]): 1; SEFTA damage score (0-5) (SETFA = Setaria faberi [5]; 250 g/Ha): 2; LOLPE damage score (0-5) (LOLPE [7]; [14]): 0; SEFTA damage score (0-5) (SETFA = Setaria faberi [11]; 62.5 g/Ha): 0
4 | COC[C@H]1C(O)N(c2cc(C(C)(C)C)on2)C(=O)N1C (stereo partly drawn) [A4 S-enantiomer, reference compound] | 0 | 0 | 0 | 1 | 0 | 0 | 2 | 0 | 0 | 0 | 0 | 0 | 0 | 0 | 0 | 1 | 3 | 0 | 0 | 0 | ZEAMX damage score (0-5) (ZEAMX = Zea mays [3]; [13]): 0; SEFTA damage score (0-5) (SETFA = Setaria faberi [5]; 250 g/Ha): 0; LOLPE damage score (0-5) (LOLPE [7]; [14]): 0; SEFTA damage score (0-5) (SETFA = Setaria faberi [11]; 62.5 g/Ha): 0
5 | CCO[C@H]1C(O)N(c2cc(C(C)(C)F)on2)C(=O)N1C (stereo partly drawn) [A5 S-enantiomer, reference compound] | 0 | 0 | 0 | 0 | 0 | 1 | 5 | 0 | 0 | 1 | 0 | 0 | 0 | 0 | 0 | 5 | 5 | 0 | 0 | 0 | ZEAMX damage score (0-5) (ZEAMX = Zea mays [3]; [13]): 0; SEFTA damage score (0-5) (SETFA = Setaria faberi [5]; 250 g/Ha): 1; LOLPE damage score (0-5) (LOLPE [7]; [14]): 0; SEFTA damage score (0-5) (SETFA = Setaria faberi [11]; 62.5 g/Ha): 0
6 | CO[C@@H]1C(O)N(c2cc(C(C)(C)C)on2)C(=O)N1C (some centres unmarked) [Example A1] | 5 | 5 | 5 | 5 | 5 | 5 | 5 | 5 | 2 | 5 | 1 | 5 | 5 | 4 | 5 | 5 | 5 | 5 | 4 | 2 | LOLPE damage score (0-5) (LOLPE [1]; [15]): 5; ECHCG damage score (0-5) [2, 15]: 5; ZEAMX damage score (0-5) (ZEAMX = Zea mays [3]; [15]): 5; ZEAMX damage score (0-5) (ZEAMX = Zea mays [3]; [13]): 5; AMARE damage score (0-5) [4, 15]: 5; SETFA damage score (0-5) (SETFA = Setaria faberi [5]): 5; SEFTA damage score (0-5) (SETFA = Setaria faberi [5]; 250 g/Ha): 5; ABUTH damage score (0-5) [6, 15]: 5; LOLPE damage score (0-5) (LOLPE [7]; [15]): 5; LOLPE damage score (0-5) (LOLPE [7]; [14]): 5; ECHCG damage score (0-5) [8, 15]: 5; ZEAMX damage score (0-5) (ZEAMX = Zea mays [9]; [15]): 3; AMARE damage score (0-5) [10, 15]: 5; SETFA damage score (0-5) (SETFA = Setaria faberi [11]): 5; SEFTA damage score (0-5) (SETFA = Setaria faberi [11]; 62.5 g/Ha): 4; ABUTH damage score (0-5) [12, 15]: 5
